# Assay results taken from patent publication US7423044B2, “Pyrimidine derivatives useful in the treatment of insulin resistance and hyperglycemia” (Wyeth, priority 2002, dated 2008).
# Molecular target: T1, PTP-1B (Homo sapiens, UniProt P18031)
# T1 sequence (P18031 1-435): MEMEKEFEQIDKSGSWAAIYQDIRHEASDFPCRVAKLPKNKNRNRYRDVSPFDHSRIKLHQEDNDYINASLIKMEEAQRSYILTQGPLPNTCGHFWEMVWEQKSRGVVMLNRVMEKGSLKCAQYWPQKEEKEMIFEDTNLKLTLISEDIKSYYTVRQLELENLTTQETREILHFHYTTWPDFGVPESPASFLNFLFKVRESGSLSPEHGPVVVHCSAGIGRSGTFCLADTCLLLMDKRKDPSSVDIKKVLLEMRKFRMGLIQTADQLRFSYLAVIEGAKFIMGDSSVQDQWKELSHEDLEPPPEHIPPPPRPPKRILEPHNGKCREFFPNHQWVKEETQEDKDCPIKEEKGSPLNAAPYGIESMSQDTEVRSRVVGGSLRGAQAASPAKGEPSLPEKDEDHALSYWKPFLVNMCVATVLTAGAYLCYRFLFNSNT
# Experiment: PTPase inhibition assay (DIFMUP fluorescence kinetic assay)
# Type: biochemical
# Details: apparent final potency from steady-state velocity (Vs); 20 μM DIFMUP, 1 nM enzyme; read-out: Kiapp
# Protocol: Measurement of PTPase activity: The present compounds are assayed in an enzyme activity-based assay. PTP-1B is known to dephosphorylate phospho-peptides. This assay is a fluorescence intensity based kinetic assay, taking advantage of a non-peptidyl substrate, 6,8-difluoro-4-methylumbelliferyl phosphate (DIFMUP). When excited at 358 nm, the dephosphorylated product of DIFMUP emits at 450 nm.
# The compounds of Examples 1-22 were analyzed as follows. The assay was conducted in black 384-well non-treated plates (Costar#3710). The assay buffer contained 50 mM 3,3-dimethyl glutaric acid, pH 7.0, 48 mM NaCl, 1 mM EDTA. Inhibitors were prepared as DMSO solution and diluted to desired concentrations using 50 mM HEPES, pH 7.4. PTP-1B was diluted to a 2.5 nM working stock using the assay buffer containing additional 0.001% (w/v) hydrogenated Triton X-100. DIFMUP was diluted to 40 μM using the assay buffer. 5 μl of inhibitor was first dispensed into assay plate. In cases of control reactions, […] of the assay buffer was dispensed. This was followed by 25 μl of DIFMUP working stock. The reaction was then initiated by the addition of 20 μl of PTP-1B working stock. The final DIFMUP concentration was 20 μM (˜1.6×Km). The final enzyme concentration was 1 nM and the detergent concentration was 0.0004% (w/v). Typical inhibitor concentrations were from 0.08 to 40 μM. The reaction progress was monitored continuously for 30 min.
# Calculations: For data analysis, the last five data points were used to obtain a slope corresponding to the estimated steady-state velocity (Vs), and the overall progress curves were used to obtain the average velocity (Va), by linear regression in both cases. The apparent final potency of inhibitor (Kiapp) was then calculated from Vs data, using the standard hyperbolic inhibition equation. The IC50 values were calculated from Va data using the sigmoidal inhibition equation. % Inhibition values were calculated from Va values of inhibitor at 40 μM, and the average Va value of control reactions.
row,Ki [µM],Compound
1,1.67,"O=C(O)c1ccc(COc2cc(-c3ccccc3)nc(-c3ccc(Cl)cc3)n2)cc1 [Example 1, 4-({[2-(4-Chlorophenyl)-6-phenylpyrimidin-4-yl]oxy}methyl)benzoic acid]"
2,7.21,"O=C(O)c1ccc(COc2cc(-c3ccccc3)nc(-c3ccncc3)n2)cc1 [Example 6, 4-{[(6-Phenyl-2-pyridin-4-ylpyrimidin-4-yl)oxy]methyl}benzoic acid]"
3,2.97,"O=C(O)c1ccc(COc2cc(-c3ccccc3)nc(-c3ccccc3)n2)cc1 [Example 7, 4-{[(2,6-Diphenylpyrimidin-4-yl)oxy]methyl}benzoic acid]"

# Same assay, conditions: inhibitor at 40 μM; from average velocity (Va); 20 μM DIFMUP, 1 nM enzyme
row,Compound,inhibition at 40 µM [%]
1,"O=C(O)c1ccc(COc2cc(-c3ccccc3)nc(-c3ccc(Cl)cc3)n2)cc1 [Example 1, 4-({[2-(4-Chlorophenyl)-6-phenylpyrimidin-4-yl]oxy}methyl)benzoic acid]",100
2,"Fc1ccc(COc2nc(-c3ccc(Cl)cc3)nc3c2CCC3)cc1 [Example 2, 2-(4-Chlorophenyl)-4-[(4-fluorobenzyl)oxy]-6,7-dihydro-5H-cyclopenta[d]pyrimidine]",10
3,"Fc1ccc(COc2nc(-c3ccccc3)nc3c2CCC3)cc1 [Example 4, 4-[(4-Fluorobenzyl)oxy]-2-phenyl-6,7-dihydro-5H-cyclopenta[d]pyrimidine]",12
4,"Fc1ccc(COc2cc(-c3ccccc3)nc(-c3ccc(Cl)cc3)n2)cc1 [Example 5, 2-(4-Chlorophenyl)-4-[(4-fluorobenzyl)oxy]-6-phenylpyrimidine]",11
5,"O=C(O)c1ccc(COc2cc(-c3ccccc3)nc(-c3ccccc3)n2)cc1 [Example 7, 4-{[(2,6-Diphenylpyrimidin-4-yl)oxy]methyl}benzoic acid]",99
6,"CC(C)c1cc(OCc2ccc(F)cc2)nc(-c2cc(Cl)cc(Cl)c2)n1 [Example 8, 2-(3,5-Dichlorophenyl)-4-[(4-fluorobenzyl)oxy]-6-isopropylpyrimidine]",48
7,"CC(C)c1cc(OCc2ccc(F)cc2)nc(-c2cccc([N+](=O)[O-])c2)n1 [Example 10, 4-[(4-Fluorobenzyl)oxy]-6-isopropyl-2-(3-nitrophenyl)pyrimidine]",56
8,"CC(C)c1cc(OCc2ccc(C#N)cc2)nc(-c2cccc([N+](=O)[O-])c2)n1 [Example 13, 4-({[6-isopropyl-2-(3-nitrophenyl)pyrimidin-4-yl]oxy}methyl)benzonitrile]",55
9,"N#Cc1ccc(COc2nc(-c3cccc([N+](=O)[O-])c3)nc3c2CN(Cc2ccccc2)CC3)cc1 [Example 14, 4-({[6-Benzyl-2-(3-nitrophenyl)-5,6,7,8-tetrahydropyrido[4,3-d]pyrimidin-4-yl]oxy}methyl)benzonitrile]",64
10,"CC(C)c1cc(OCc2ccc(C(F)(F)F)cc2)nc(-c2cc(Cl)cc(Cl)c2)n1 [Example 15, 2-(3,5-Dichlorophenyl)-4-isopropyl-6-{[4-(trifluoromethyl)benzyl]oxy} pyrimidine]",57
11,"O=[N+]([O-])c1cccc(-c2nc3c(c(OCc4ccc(C(F)(F)F)cc4)n2)CN(Cc2ccccc2)CC3)c1 [Example 18, 6-Benzyl-2-(3-nitrophenyl)-4-{[4-(trifluoromethyl)benzyl]oxy}-5,6,7,8-tetrahydropyrido[4,3-d]pyrimidine]",51
12,"O=C(O)c1ccc(COc2nc(-c3cc(Cl)cc(Cl)c3)nc3c2CN(Cc2ccccc2)CC3)cc1 [Example 20, 4-({[6-Benzyl-2-(3,5-dichlorophenyl)-5,6,7,8-tetrahydropyrido[4,3-d]pyrimidin-4-yl]oxy}methyl)benzoic acid]",100
13,"CC(C)c1cc(OCc2ccc(C(=O)O)cc2)nc(-c2cccc([N+](=O)[O-])c2)n1 [Example 21, 4-({[6-Isopropyl-2-(3-nitrophenyl)pyrimidin-4-yl]oxy}methyl)benzoic acid]",101
14,"O=C(O)c1ccc(COc2nc(-c3cccc([N+](=O)[O-])c3)nc3c2CN(Cc2ccccc2)CC3)cc1 [Example 22, 4-({[6-Benzyl-2-(3-nitrophenyl)-5,6,7,8-tetrahydropyrido[4,3-d]pyrimidin-4-yl]oxy}methyl)benzoic acid]",93

# Now from value to molecule:
row,inhibition at 40 µM [%],Compound
1,11,"Fc1ccc(COc2cc(-c3ccccc3)nc(-c3ccncc3)n2)cc1 [Example 3, 4-[(4-Fluorobenzyl)oxy]-6-phenyl-2-pyridin-4-ylpyrimidine]"
2,56,"O=C(O)c1ccc(COc2cc(-c3ccccc3)nc(-c3ccncc3)n2)cc1 [Example 6, 4-{[(6-Phenyl-2-pyridin-4-ylpyrimidin-4-yl)oxy]methyl}benzoic acid]"
3,55,"Fc1ccc(COc2nc(-c3cc(Cl)cc(Cl)c3)nc3c2CN(Cc2ccccc2)CC3)cc1 [Example 9, 6-Benzyl-2-(3,5-dichlorophenyl)-4-[(4-fluorobenzyl)oxy]-5,6,7,8-tetrahydropyrido[4,3-d]pyrimidine]"
4,34,"CC(C)c1cc(OCc2ccc(C#N)cc2)nc(-c2cc(Cl)cc(Cl)c2)n1 [Example 11, 4-({[2-(3,5-Dichlorophenyl)-6-isopropylpyrimidin-4-yl]oxy}methyl)benzonitrile]"
5,54,"N#Cc1ccc(COc2nc(-c3cc(Cl)cc(Cl)c3)nc3c2CN(Cc2ccccc2)CC3)cc1 [Example 12, 4-({[6-Benzyl-2-(3,5-dichlorophenyl)-5,6,7,8-tetrahydropyrido[4,3-d]pyrimidin-4-yl]oxy}methyl)benzonitrile]"
6,52,"FC(F)(F)c1ccc(COc2nc(-c3cc(Cl)cc(Cl)c3)nc3c2CN(Cc2ccccc2)CC3)cc1 [Example 16, 6-Benzyl-2-(3,5-dichlorophenyl)-4-{[4-(trifluoromethyl)benzyl]oxy}-5,6,7,8-tetrahydropyrido[4,3-d]pyrimidine]"
7,49,"CC(C)c1cc(OCc2ccc(C(F)(F)F)cc2)nc(-c2cccc([N+](=O)[O-])c2)n1 [Example 17, 4-Isopropyl-2-(3-nitrophenyl)-6-{[4-(trifluoromethyl)benzyl]oxy} pyrimidine]"
8,101,"CC(C)c1cc(OCc2ccc(C(=O)O)cc2)nc(-c2cc(Cl)cc(Cl)c2)n1 [Example 19, 4-({[2-(3,5-Dichlorophenyl)-6-isopropylpyrimidin-4-yl]oxy}methyl)benzoic acid]"
